Patent US10168338B2, “Methods of identifying modulators of sestrin-gator-2 interaction for modulating mTORC1 activity” (Whitehead Institute for Biomedical Research, priority 2014, dated 2019)

What was measured:
[1] = target: T1, Sestrin-GATOR2 interaction (Homo sapiens, UniProt P58004); experiment: Effect of specific amino acids on Sestrin-GATOR2 interaction (FLAG-WDR24 immunoprecipitation, immunoblot); format: cell-based; settings: HEK-293T stably expressing FLAG-WDR24; starvation/restimulation, pre- or post-lysis addition, washes of immunoprecipitates
T1 construct: To isolate the FLAG-WDR24/endogenous-Sestrin2 complex; endogenous in cells; host or cells: HEK-293T cells stably expressing FLAG-WDR24; Sestrin2 and the other GATOR2 subunits are endogenous
T1 sequence (P58004 1-480): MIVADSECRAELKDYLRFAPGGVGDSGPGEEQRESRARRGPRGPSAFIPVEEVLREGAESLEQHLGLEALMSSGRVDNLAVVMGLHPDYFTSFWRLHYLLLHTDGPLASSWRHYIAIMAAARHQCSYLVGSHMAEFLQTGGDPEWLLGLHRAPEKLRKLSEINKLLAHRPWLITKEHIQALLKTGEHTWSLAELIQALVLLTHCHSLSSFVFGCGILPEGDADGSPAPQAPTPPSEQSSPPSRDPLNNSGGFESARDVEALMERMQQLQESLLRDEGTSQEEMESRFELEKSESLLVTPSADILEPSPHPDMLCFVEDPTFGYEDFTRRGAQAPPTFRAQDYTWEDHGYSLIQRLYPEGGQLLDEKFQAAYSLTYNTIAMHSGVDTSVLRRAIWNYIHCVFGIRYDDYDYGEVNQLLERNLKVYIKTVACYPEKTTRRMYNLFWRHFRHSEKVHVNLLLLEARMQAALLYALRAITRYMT
Description: In order to further explore if specific amino acid levels affected the Sestrin-GATOR2 interaction, HEK-293T cells stably expressing the FLAG-tagged GATOR2 component WDR24 (and FLAG-tagged metap2 as a control) were starved of either all amino acids (ALL); only leucine, arginine, and lysine (LRK); only leucine (L); only arginine (R); or only lysine (K) for 50 minutes, or starved for 50 minutes and restimulated for 10 minutes with the indicated amino acids.
HEK-293T cells stably expressing the FLAG-tagged GATOR2 component WDR24 were starved of all amino acids for 50 minutes. Individual amino acids were added pre-lysis to the cell culture media or post-lysis to cell lysates prior to FLAG immunoprecipitation.
Finally, HEK-293T cells stably expressing the FLAG-tagged GATOR2 component WDR24 were starved of all amino acids for 50 minutes. Immunoprecipitates were subjected to washes containing the indicated amounts of leucine or arginine and analyzed along with cell lysates by immunoblotting for the indicated proteins as shown in FIG. 8C.

Sestrin2 = target: T2, Sestrin2 (Homo sapiens, UniProt P58004); experiment: [3H]-labeled amino acid binding to FLAG-Sestrin2 immunoprecipitated from HEK-293T cells
T2 construct: expressed in transfected cells; host or cells: HEK-293T, transient transfection of a pRK5-based cDNA plasmid, anti-FLAG immunoprecipitation
T2 sequence (P58004 1-480): T1 sequence (P58004 1-480)
Description: (§1) Four million HEK-293T cells were plated in a 15 cm plate four days prior to the experiment. Each plate yielded the protein for one sample. Forty-eight hours after plating, the cells were transfected via the polyethylenimine method (O. Boussif et al., PNAS (USA), 92:7297-7301 (1995)) with the pRK5-based cDNA expression plasmids indicated in the figures in the following amounts: 5 μgFLAG-Sestrin2; 12 μg of the negative control Rap2A; 5 μg WDR24; 2 μg WDR24 with 4 μg each of HA-Seh1L, HA-Sec13, HA-Mios, and HA-WDR59; 12 […] (CG11299-PD); 12 μgFLAG-Sestrin1.1; 12 μg FLAG-Sestrin1.2; 12 μg FLAG-Sestrin3; 12 μg FLAG-Sestrin2 mutants (L261A, E451A, S190A) and up to 20 μg total DNA with empty-PRK5. Forty-eight hours after transfection cells were lysed as described in Example 1. If multiple samples of the same type were represented in the experiment, the cell lysates were combined, mixed, and evenly distributed amongst the relevant tubes, to ensure equal protein amounts across samples of the same type.
Anti-FLAG immunoprecipitates were prepared as previously described, with the exception that, prior to incubation with lysates, the beads were blocked by rotating in 1 μg/μl bovine serum albumin (BSA) for 20 minutes at 4° C. and subsequently washed twice in lysis buffer. Thirty μl of the 50/50 slurry of beads in lysis buffer was added to each of the clarified cell lysates and incubated as previously described in Example 1.
For the binding assays, two tubes at a time were washed as previously indicated for immunoprecipitations. All the liquid was subsequently aspirated and a 15 μl aliquot of proteins bound to the beads was incubated for one hour on ice in cytosolic buffer (0.1% Triton, 40 mM HEPES pH 7.4, 10 mM NaCl, 150 mM KCl, 2.5 mM MgCl2) with the appropriate amount of [^3H]-labeled amino acids and unlabeled amino acids. Tubes were flicked every five minutes. At the end of one hour, the beads were briefly spun down, aspirated dry, and rapidly washed three times with binding wash buffer (0.1% Triton, 40 mM HEPES pH 7.4, 150 mM NaCl). The beads were aspirated dry again and resuspended in 85 μl of binding wash buffer. With a cut tip, each sample was mixed well and three 10 μl aliquots were separately quantified using a TriCarb® scintillation counter (PerkinElmer). This process was repeated in pairs for each sample, to ensure similar incubation and wash times for all samples analyzed across different experiments.
Amino acid affinities to Sestrin2 were determined by first normalizing the bound [^3H]-labeled amino acid concentrations across three separate binding assays performed with varying amounts of unlabeled amino acid competition. These values were plotted and fit to a hyperbolic equation ([…]) to estimate the IC50 value. Kd or Ki values were derived from the IC50 value using the equation: Kd or Ki=IC50/(1+([[^3H]Leucine])/Kd).

Sestrin1 = experiment: [3H]-leucine binding to FLAG-Sestrin1 immunoprecipitated from HEK-293T cells; design: species or system human; settings: FLAG-tagged protein from HEK-293T
Description: as §1, with “If multiple samples of the same type were represented in the experiment, the cell lysates were combined, mixed, and evenly distributed amongst the relevant tubes, to ensure equal protein amounts across samples of the same type.” left out
(§2) For the binding assays, two tubes at a time were washed as previously indicated for immunoprecipitations. […] With a cut tip, each sample was mixed well and three 10 μl aliquots were separately quantified using a TriCarb® scintillation counter (PerkinElmer). This process was repeated in pairs for each sample, to ensure similar incubation and wash times for all samples analyzed across different experiments.

Sestrin3 = target: T3, Sestrin3 (Homo sapiens, UniProt P58005); experiment: [3H]-leucine binding to FLAG-Sestrin3 immunoprecipitated from HEK-293T cells; settings: FLAG-tagged protein from HEK-293T
T3 construct: expressed in transfected cells; host or cells: HEK-293T, transient transfection of a pRK5-based cDNA plasmid, anti-FLAG immunoprecipitation
T3 sequence (P58005 1-492): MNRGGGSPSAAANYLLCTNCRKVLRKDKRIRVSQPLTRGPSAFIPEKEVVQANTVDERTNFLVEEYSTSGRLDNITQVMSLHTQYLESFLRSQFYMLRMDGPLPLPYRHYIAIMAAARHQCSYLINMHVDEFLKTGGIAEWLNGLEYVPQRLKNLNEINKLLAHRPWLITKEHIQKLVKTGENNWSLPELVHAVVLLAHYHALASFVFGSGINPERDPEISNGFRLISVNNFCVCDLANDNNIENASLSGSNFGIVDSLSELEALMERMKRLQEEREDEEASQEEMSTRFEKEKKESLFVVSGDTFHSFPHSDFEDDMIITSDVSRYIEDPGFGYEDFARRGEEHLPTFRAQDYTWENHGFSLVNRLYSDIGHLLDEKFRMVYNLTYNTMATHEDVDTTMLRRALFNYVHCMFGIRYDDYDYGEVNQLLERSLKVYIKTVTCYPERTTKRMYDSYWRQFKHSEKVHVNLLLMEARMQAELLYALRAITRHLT
Description: as §1, with “If multiple samples of the same type were represented in the experiment, the cell lysates were combined, mixed, and evenly distributed amongst the relevant tubes, to ensure equal protein amounts across samples of the same type.” left out
as §2

## CC(C)C[C@H](N)C(=O)O [leucine]
[1]
  disruption of the Sestrin-GATOR2 interaction: disrupts the Sestrin-GATOR2 interaction
Sestrin2; FLAG-Sestrin2 from HEK-293T, competed by excess unlabeled leucine
  binding of radiolabeled amino acid to Sestrin2: bound to Sestrin2
Sestrin2; competition with unlabeled leucine, 10 μM 3H-leucine, three experiments
  Kd: 20 ± 5 µM
Sestrin1
  binding of leucine to Sestrin1: to a similar extent as Sestrin2
Sestrin3
  binding of leucine to Sestrin3: only slightly above background
